How the values were obtained:
[1] = system: A2780 (ovarian carcinoma); assay: SRB cytotoxicity assay, 72 h; format: cell-based, human; conditions: A2780, 72 h, cut-off 30 µM
Procedure, shortened: (§1)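 Absorbance at 570 nm of SRB-stained cells gives % survival vs untreated controls, from which EC50 is determined. Treatment: 0–30 µM serial dilutions, 72 h, beginning 24 h post-seeding; DMSO ≤0.5%. TCA (10%) fixation, acetic acid wash.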

[2] = system: A375 (malignant melanoma); assay: SRB cytotoxicity assay, 72 h; format: cell-based, human; conditions: A375, 72 h, cut-off 30 µM
Procedure, shortened: as §1

[3] = system: FaDu (hypopharyngeal carcinoma); assay: SRB cytotoxicity assay, 72 h; format: cell-based, human; conditions: cut-off 30 µM
Procedure, shortened: as §1

[4] = system: HT29 (colorectal carcinoma); assay: SRB cytotoxicity assay, 72 h; format: cell-based, human; conditions: HT29, 72 h, cut-off 30 µM
Procedure, shortened: as §1

MCF-7 (breast carcinoma) = assay: SRB cytotoxicity assay, 72 h; format: cell-based, human; conditions: MCF-7, 72 h, cut-off 30 µM
Procedure, shortened: as §1

LOX IMVI (Melanoma) = assay: NCI-60 screen (SRB, 48 h); format: cell-based; conditions: Homo sapiens
NSC lung cancer subpanel = assay: NCI-60 screen, subpanel; conditions: Homo sapiens
CNS cancer subpanel = assay: NCI-60 screen, subpanel; conditions: Homo sapiens
Ovarian Cancer subpanel = assay: NCI-60 screen, subpanel; conditions: Homo sapiens
Breast cancer subpanel = assay: NCI-60 screen, subpanel; conditions: Homo sapiens
[5] = system: A549/ATCC (NSC lung cancer); assay: NCI-60 screen (SRB, 48 h); conditions: Homo sapiens
[6] = system: NCI-H23 (NSC lung cancer); assay: NCI-60 screen (SRB, 48 h); conditions: Homo sapiens
[7] = system: NCI-H460 (NSC lung cancer); assay: NCI-60 screen (SRB, 48 h); conditions: Homo sapiens
[8] = system: NCI-H522 (NSC lung cancer); assay: NCI-60 screen (SRB, 48 h); conditions: Homo sapiens
SF-268 (CNS cancer) = assay: NCI-60 screen (SRB, 48 h); conditions: Homo sapiens
SF-295 (CNS cancer) = assay: NCI-60 screen (SRB, 48 h); conditions: Homo sapiens
SF-539 (CNS cancer) = assay: NCI-60 screen (SRB, 48 h); conditions: Homo sapiens
U251 (CNS cancer) = assay: NCI-60 screen (SRB, 48 h); conditions: Homo sapiens
M14 (Melanoma) = assay: NCI-60 screen (SRB, 48 h); conditions: Homo sapiens
SK-MEL-2 (Melanoma) = assay: NCI-60 screen (SRB, 48 h); conditions: Homo sapiens
SK-MEL-28 (Melanoma) = assay: NCI-60 screen (SRB, 48 h); conditions: Homo sapiens
OVCAR-5 (Ovarian cancer) = assay: NCI-60 screen (SRB, 48 h); conditions: Homo sapiens
CAKI-1 (Renal cancer) = assay: NCI-60 screen (SRB, 48 h)
RXF 393 (Renal cancer) = assay: NCI-60 screen (SRB, 48 h); conditions: Homo sapiens

With `CC1(C)CC[C@]23CC[C@]4(C)[C@H](CC[C@@H]5[C@@]6(C)CCCNC(C)(C)[C@@H]6CC[C@]54C)[C@H]2[C@H]1OC3` [Compound 7, Azepanoallobetulin] the EC50 [1] was “n.s”, the EC50 [2] was “n.s” and the EC50 [3] was “n.s”. For the same compound, the EC50 [4] was “n.s”, the EC50 (MCF-7 (breast carcinoma)) was “n.s” and the IC (TGI) (LOX IMVI (Melanoma); 48 h) was 3.08 µM. It also gave an activity at 10 µM (LOX IMVI (Melanoma); 48 h, 1 dose 10 µM, read-out: Growth % of the Most Sensitive Cell Lines) of -94.9%, a GI50 (LOX IMVI (Melanoma); read-out: GI50) of 1.6 µM and an IC (TGI) (NSC lung cancer subpanel; 48 h, read-out: TGI MG_MID) of 3.28 µM. For the same compound, the GI50 (NSC lung cancer subpanel; read-out: GI50 MG_MID) was 1.49 µM, the CC50 (NSC lung cancer subpanel; read-out: LC50 MG_MID) was 6.73 µM and the IC (TGI) (CNS cancer subpanel; 48 h, read-out: TGI MG_MID) was 3.51 µM. The GI50 (CNS cancer subpanel; read-out: GI50 MG_MID) was 1.58 µM, the CC50 (CNS cancer subpanel; read-out: LC50 MG_MID) was 10.2 µM and the IC (TGI) (Ovarian Cancer subpanel; 48 h, read-out: TGI MG_MID) was 3.99 µM. The GI50 (Ovarian Cancer subpanel; read-out: GI50 MG_MID) was 1.86 µM, the CC50 (Ovarian Cancer subpanel; read-out: LC50 MG_MID) was 12.3 µM and the IC (TGI) (Breast cancer subpanel; 48 h, read-out: TGI MG_MID) was 3.55 µM. The GI50 (Breast cancer subpanel; read-out: GI50 MG_MID) was 1.68 µM, the CC50 (Breast cancer subpanel; read-out: LC50 MG_MID) was 6.06 µM and the GI50 ([5]; A549) was 1.81 µM. For the same compound, the IC (TGI) ([5]; A549, 48 h, read-out: TGI) was 3.43 µM, the CC50 ([5]; A549, read-out: LC50) was 6.5 µM and the GI50 ([6]; NCI-H23) was 1.76 µM. For the same compound, the IC (TGI) ([6]; NCI-H23, 48 h, read-out: TGI) was 3.5 µM, the CC50 ([6]; NCI-H23, read-out: LC50) was 6.95 µM and the GI50 ([7]; NCI-H460) was 0.65 µM. The IC (TGI) ([7]; NCI-H460, 48 h, read-out: TGI) was 2.2 µM, the CC50 ([7]; NCI-H460, read-out: LC50) was 6.12 µM and the GI50 ([8]; NCI-H522) was 1.9 µM. The IC (TGI) ([8]; NCI-H522, 48 h, read-out: TGI) was 3.77 µM, the CC50 ([8]; NCI-H522, read-out: LC50) was 7.49 µM and the GI50 (SF-268 (CNS cancer); SF-268) was 2.04 µM. For the same compound, the IC (TGI) (SF-268 (CNS cancer); SF-268, 48 h, read-out: TGI) was 5.31 µM, the CC50 (SF-268 (CNS cancer); SF-268, read-out: LC50) was 31.5 µM and the GI50 (SF-295 (CNS cancer); SF-295) was 1.7 µM. The IC (TGI) (SF-295 (CNS cancer); SF-295, 48 h, read-out: TGI) was 3.19 µM, the CC50 (SF-295 (CNS cancer); SF-295, read-out: LC50) was 5.99 µM and the GI50 (SF-539 (CNS cancer); SF-539) was 1.64 µM. The IC (TGI) (SF-539 (CNS cancer); SF-539, 48 h, read-out: TGI) was 3.07 µM, the CC50 (SF-539 (CNS cancer); SF-539, read-out: LC50) was 5.78 µM and the GI50 (U251 (CNS cancer); U-251) was 1.74 µM. It also gave an IC (TGI) (U251 (CNS cancer); U-251, 48 h, read-out: TGI) of 3.23 µM, a CC50 (U251 (CNS cancer); U-251, read-out: LC50) of 5.98 µM and a GI50 (M14 (Melanoma); M14) of 1.77 µM. The IC (TGI) (M14 (Melanoma); M14, 48 h, read-out: TGI) was 3.31 µM, the CC50 (M14 (Melanoma); M14, read-out: LC50) was 6.19 µM and the GI50 (SK-MEL-2 (Melanoma); SK-MEL-2) was 1.95 µM. The IC (TGI) (SK-MEL-2 (Melanoma); SK-MEL-2, 48 h, read-out: TGI) was 4.09 µM, the CC50 (SK-MEL-2 (Melanoma); SK-MEL-2, read-out: LC50) was 8.57 µM and the GI50 (SK-MEL-28 (Melanoma); SK-MEL-28) was 1.66 µM. The IC (TGI) (SK-MEL-28 (Melanoma); SK-MEL-28, 48 h, read-out: TGI) was 3.18 µM, the CC50 (SK-MEL-28 (Melanoma); SK-MEL-28, read-out: LC50) was 6.07 µM and the GI50 (OVCAR-5 (Ovarian cancer); OVCAR-5) was 1.6 µM. The IC (TGI) (OVCAR-5 (Ovarian cancer); OVCAR-5, 48 h, read-out: TGI) was 3.04 µM, the CC50 (OVCAR-5 (Ovarian cancer); OVCAR-5, read-out: LC50) was 5.8 µM and the “Growth % of the Most Sensitive Cell Lines” value (CAKI-1 (Renal cancer); CAKI-1, 1 dose 10 µM) was −92.03%. For the same compound, the GI50 (CAKI-1 (Renal cancer); Homo sapiens, CAKI-1) was 1.62 µM, the IC (TGI) (CAKI-1 (Renal cancer); Homo sapiens, CAKI-1, 48 h, read-out: TGI) was 2.97 µM and the CC50 (CAKI-1 (Renal cancer); Homo sapiens, CAKI-1, read-out: LC50) was 5.45 µM. It also gave a GI50 (RXF 393 (Renal cancer); RXF 393) of 1.56 µM, an IC (TGI) (RXF 393 (Renal cancer); RXF 393, 48 h, read-out: TGI) of 2.98 µM and a CC50 (RXF 393 (Renal cancer); RXF 393, read-out: LC50) of 5.69 µM.

Source: article PMC7914897, “Cytotoxic Potential of a-Azepano- and 3-Amino-3,4-SeCo-Triterpenoids” (International Journal of Molecular Sciences, 2021)
